The values that follow come from patent publication US9725442B2, “Heterocyclic derivative having PGD2 receptor antagonist activity” (Shionogi & Co., Ltd., priority 2011, dated 2017).

The target of one assay is DP receptor (Homo sapiens (Human), UniProt Q13258). Kind of assay: DP inhibitory activity in human platelets (PGD2-induced cAMP increase in platelet rich plasma, HTRF). It counts as cell-based. To be noted: IC50 of PGD2 (300 nM)-induced cAMP increase, read-out: PRP. The procedure:
Thirty milliliter of blood was drown from healthy human into a syringe preloaded with 1/9 volume of 3.8% citrate sodium. The blood was centrifuged with 180 g for 10 min at room temperature and the upper plasma layer was collected as platelet rich plasma (PRP). The PRP was transferred to plate and treated with 3-isobutyl-1-methylxanthin (IBMX; […]) for 5 min. Then the compounds of the present invention were added to the plate and after 10 min, 300 nM of PGD2 was added. The reaction was stopped with 1 mmol/l hydrogenchlolide after 2 min of PGD2 addition, and platelet was lysed by adding 12% Triton X-100. The concentration of cAMP in the supernatant of the platelet lysate was quantified using homogenous time resolved fluorescence (HTRF). Inhibition ratio was defined by cAMP increase with and without compound, and […] for each compound was calculated from inhibitory curve.

The next assay deals with Human DP1 receptor (Homo sapiens (Human), UniProt Q13258). Kind of assay: Human DP1 inhibitory activity in DP1-expressing cell (PGD2-induced cAMP). It counts as cell-based. How it is done:
Compounds were categorized as AA (cAMP is less than 100 nM) and A (cAMP is more than 100 nM and less than 5000 nM) as shown in Table 99 and 100.

A further assay deals with CRTH2 (Homo sapiens (Human), UniProt Q9Y5Y4). As to the kind of experiment: CRTH2 receptor binding inhibitory activity ([3H]-PGD2 displacement, membranes of CRTH2-expressing K562 cell). To be noted: [3H]-PGD2 displacement, membrane of CRTH2-expressing K562 cell, read-out: Ki. In a few lines:
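Incubation ran 60 min at room temperature using 20 μg/well membrane from CRTH2-expressing K562 cells in pH 7.4 Tris/HCl (50 mM) with 10 mM MgCl2.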

Setting [1] is: IC50 of PGD2 (60 nM)-induced cAMP increase, human DP1 receptor expressing Jurkut cell.
[2] abbreviates: category of cAMP IC50, human DP1 receptor expressing Jurkut cell.
Where [3] appears, read: CRTH2 receptor binding, categorized AAAA/AAA.

Where two headings read alike, the source gives them in different places.

Chain of CRTH2 (Q9Y5Y4 whole entry): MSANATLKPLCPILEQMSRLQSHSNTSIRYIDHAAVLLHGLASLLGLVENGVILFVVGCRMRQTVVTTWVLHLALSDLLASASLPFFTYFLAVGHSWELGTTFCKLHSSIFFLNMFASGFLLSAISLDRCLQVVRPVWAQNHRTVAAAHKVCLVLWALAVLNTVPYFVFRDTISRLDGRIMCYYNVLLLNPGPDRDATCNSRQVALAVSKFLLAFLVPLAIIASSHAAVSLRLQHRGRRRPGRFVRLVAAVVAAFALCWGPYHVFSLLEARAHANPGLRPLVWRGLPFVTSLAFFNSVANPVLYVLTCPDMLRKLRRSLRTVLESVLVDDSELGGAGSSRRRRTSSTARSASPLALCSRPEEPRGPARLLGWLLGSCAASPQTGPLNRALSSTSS
Chain of DP receptor (Q13258 whole entry): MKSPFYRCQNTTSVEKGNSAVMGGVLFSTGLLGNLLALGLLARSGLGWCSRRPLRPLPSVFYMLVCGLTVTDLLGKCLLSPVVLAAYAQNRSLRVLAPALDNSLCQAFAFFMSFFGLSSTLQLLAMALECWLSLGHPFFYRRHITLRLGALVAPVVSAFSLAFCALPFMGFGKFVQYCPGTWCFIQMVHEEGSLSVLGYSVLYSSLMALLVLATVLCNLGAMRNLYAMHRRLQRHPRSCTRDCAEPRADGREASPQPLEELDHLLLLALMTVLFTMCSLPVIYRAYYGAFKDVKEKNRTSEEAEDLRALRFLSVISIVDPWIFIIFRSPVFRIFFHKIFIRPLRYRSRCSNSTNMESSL
Chain of Human DP1 receptor (Q13258 whole entry): as above

As for `CO/N=C/[C@H]1C[C@@H](n2nc(CC(=O)O)c3ccc(F)cc32)CN1S(=O)(=O)c1ccc(OC(C)C)cc1` [Compound I-19], the IC50 was 260 nM at DP receptor, 56 nM against Human DP1 receptor (setting [1]) and < 100 nM on Human DP1 receptor (setting [2]). In addition, the inhibition constant (Ki) was < 100 nM on CRTH2 (setting [3]) and 62 nM on CRTH2.
As for `CC(C)Oc1ccc(S(=O)(=O)N2C[C@H](n3nc(CC(=O)O)c4ccc(F)cc43)C[C@@H]2Cn2cccn2)cc1` [Compound I-21], the results for the IC50 at DP receptor, at Human DP1 receptor (setting [1]) and on Human DP1 receptor (setting [2]) were 180 nM, 59 nM and < 100 nM, respectively. Further, the results for the Ki on CRTH2 (setting [3]) and at CRTH2 were < 100 nM and 10 nM, respectively.
With `C[C@@H]1CN(S(=O)(=O)c2ccc(OC(F)(F)F)cc2)C[C@@H]1n1nc(CC(=O)O)c2ccc(Cl)cc21` [Compound I-142], the IC50 is 92 nM at DP receptor, 9.9 nM against Human DP1 receptor (setting [1]) and < 100 nM on Human DP1 receptor (setting [2]). The Ki is < 100 nM at CRTH2 (setting [3]) and 11 nM at CRTH2.
Take `CC(C)Oc1ccc(S(=O)(=O)N2C[C@@H](C)[C@@H](n3cc(CC(=O)O)c4ccc(F)cc43)C2)cc1` [Compound I-144]: the IC50 at DP receptor was 82 nM; at Human DP1 receptor (setting [1]), 4.7 nM; at Human DP1 receptor (setting [2]), < 100 nM. The Ki at CRTH2 (setting [3]) was < 100 nM; at CRTH2, 3.1 nM.
Turning to `CCOc1ccc(S(=O)(=O)N2C[C@@H](C)[C@@H](n3nc(CC(=O)O)c4c(F)cccc43)C2)cc1` [Compound I-150], the IC50 was 41 nM on DP receptor, 20 nM against Human DP1 receptor (setting [1]) and < 100 nM at Human DP1 receptor (setting [2]). The figures for the Ki on CRTH2 (setting [3]) and at CRTH2 were < 100 nM and 99 nM, respectively.
For `CC(C)Oc1ccc(S(=O)(=O)N2C[C@@H](C)[C@H](n3nc(CC(=O)O)c4cc(Br)c(F)cc43)C2)cc1` [Compound I-156], the figures for the IC50 on DP receptor, against Human DP1 receptor (setting [1]) and at Human DP1 receptor (setting [2]) were 110 nM, 3 nM and < 100 nM, respectively. Moreover, at CRTH2 (setting [3]), the Ki was 100 to 5000 nM.
For `CCOc1ccc(S(=O)(=O)N2C[C@@H](C)[C@@H](n3nc(CC(=O)O)c4cc(C#N)ccc43)C2)cn1` [Compound I-159] the same measures were 68 nM, 140 nM, 100 to 5000 nM and 100 to 5000 nM.
Turning to `CCOc1ncc(S(=O)(=O)N2C[C@@H](C)[C@@H](n3nc(CC(=O)O)c4ccc(F)cc43)C2)s1` [Compound I-166], the IC50 at DP receptor is 55 nM; on Human DP1 receptor (setting [1]), 32 nM; at Human DP1 receptor (setting [2]) it was < 100 nM. The results for the Ki at CRTH2 (setting [3]) and on CRTH2 were < 100 nM and 12 nM, respectively.
In the case of `COc1ccccc1OC[C@H]1C[C@@H](n2nc(CC(=O)O)c3ccc(F)cc32)CN1S(=O)(=O)c1ccc(OC(C)C)cc1` [Compound I-344], the IC50 on Human DP1 receptor (setting [2]) is < 100 nM. The Ki at CRTH2 (setting [3]) was in the range of 100 to 5000 nM.
For `CC(C)Oc1ccc(S(=O)(=O)N2C[C@H](n3nc(CC(=O)O)c4ccc(F)cc43)CC2c2cccnc2)cc1` (stereo partly drawn) [Compound I-345] the same measures were 100 to 5000 nM and 100 to 5000 nM.
The matching figures for `CC(C)Oc1ccc(S(=O)(=O)N2C[C@H](n3nc(CC(=O)O)c4ccc(F)cc43)C[C@@H]2COc2cccc(O)c2)cc1` [Compound I-346]: < 100 nM and < 100 nM.
The matching figures for `CC(C)Oc1ccc(S(=O)(=O)N2C[C@H](n3nc(CC(=O)O)c4ccc(F)cc43)C[C@@H]2COc2ccc(O)cc2)cc1` [Compound I-347]: < 100 nM and 100 to 5000 nM.
`CC(C)Oc1ccc(S(=O)(=O)N2C[C@H](n3nc(CC(=O)O)c4ccc(F)cc43)C[C@@H]2Cc2ccccc2)cc1` [Compound I-348]: the IC50 against Human DP1 receptor (setting [2]) is < 100 nM. Besides, the Ki on CRTH2 (setting [3]) is < 100 nM.
In the case of `CC(C)Oc1ccc(S(=O)(=O)N2C[C@H](n3nc(CC(=O)O)c4ccccc43)C[C@@H]2Cc2ccccc2)cc1` [Compound I-349], on Human DP1 receptor (setting [2]), the IC50 was < 100 nM. Besides, at CRTH2 (setting [3]), the Ki was 100 to 5000 nM.
The matching figures for `CC(C)Oc1ccc(S(=O)(=O)N2C[C@H](n3nc(CC(=O)O)c4ccc(F)cc43)C[C@H]2c2ccccn2)cc1` [Compound I-350]: 100 to 5000 nM and < 100 nM.
As for `CC(C)Oc1ccc(S(=O)(=O)N2C[C@H](n3nc(CC(=O)O)c4ccc(F)cc43)C[C@@H]2c2ccccn2)cc1` [Compound I-351], the IC50 against Human DP1 receptor (setting [2]) is 100 to 5000 nM. The Ki at CRTH2 (setting [3]) fell in the range of 100 to 5000 nM.
For the compound `CCOc1ccc(S(=O)(=O)N2C[C@H](n3nc(CC(=O)O)c4ccccc43)C[C@@H]2CC2COC2)cc1` [Compound I-352], on Human DP1 receptor (setting [2]), the IC50 is 100 to 5000 nM. The Ki on CRTH2 (setting [3]) is 100 to 5000 nM.
Consider `CSC[C@H]1C[C@@H](n2nc(CC(=O)O)c3ccc(F)cc32)CN1S(=O)(=O)c1ccc(OC(C)C)cc1` [Compound I-354], for which the IC50 at Human DP1 receptor (setting [2]) was < 100 nM. Besides, the Ki at CRTH2 (setting [3]) was 100 to 5000 nM.
With `CC(C)Oc1ccc(S(=O)(=O)N2C[C@H](n3nc(CC(=O)O)c4ccc(F)cc43)C[C@@H]2CS(C)(=O)=O)cc1` [Compound I-355], the IC50 at Human DP1 receptor (setting [2]) lay within 100 to 5000 nM. Moreover, on CRTH2 (setting [3]), the Ki lay within 100 to 5000 nM.
On to `CCOc1ccc(S(=O)(=O)N2C[C@H](n3nc(CC(=O)O)c4ccccc43)C(C)(C)C2)cc1` [Compound I-356], for which the IC50 on Human DP1 receptor (setting [2]) was 100 to 5000 nM. Further, the Ki on CRTH2 (setting [3]) was < 100 nM.
`CC(C)Oc1ccc(S(=O)(=O)N2C[C@H](n3nc(CC(=O)O)c4ccc(F)cc43)C[C@H]2c2ccccn2)cc1` [Compound I-357] came in with an IC50 against Human DP1 receptor (setting [2]) of 100 to 5000 nM. Besides, the Ki on CRTH2 (setting [3]) is 100 to 5000 nM.
At Human DP1 receptor (setting [2]), `CC(C)Oc1ccc(S(=O)(=O)N2C[C@H](n3nc(CC(=O)O)c4ccc(F)cc43)C[C@@H]2c2ccccn2)cc1` [Compound I-358] returned an IC50 of 100 to 5000 nM. In addition, the Ki at CRTH2 (setting [3]) is 100 to 5000 nM.
For `CC(C)Oc1ccc(S(=O)(=O)N2C[C@H](n3nc(CC(=O)O)c4ccc(F)cc43)C[C@H]2c2ccccc2)cc1` [Compound I-359], the IC50 against Human DP1 receptor (setting [2]) lay in the range of 100 to 5000 nM. The Ki at CRTH2 (setting [3]) was < 100 nM.
As for `CC(C)Oc1ccc(S(=O)(=O)N2C[C@H](n3nc(CC(=O)O)c4ccc(F)cc43)C[C@@H]2c2ccccc2)cc1` [Compound I-360], the IC50 on Human DP1 receptor (setting [2]) was < 100 nM. The results for the Ki on CRTH2 (setting [3]) and on CRTH2 were < 100 nM and 30 nM, respectively.
On to `CC(C)Oc1ccc(S(=O)(=O)N2C[C@H](n3nc(CC(=O)O)c4ccc(F)cc43)C[C@@H]2c2ccncc2)cc1` [Compound I-361], for which, at Human DP1 receptor (setting [2]), the IC50 was 100 to 5000 nM. Moreover, the Ki on CRTH2 (setting [3]) was 100 to 5000 nM.
`CC(C)Oc1ccc(S(=O)(=O)N2C[C@H](n3nc(CC(=O)O)c4ccc(F)cc43)C[C@H]2c2ccncc2)cc1` [Compound I-362] yielded an IC50 at Human DP1 receptor (setting [2]) of 100 to 5000 nM. Besides, the inhibitory constant (Ki) on CRTH2 (setting [3]) was in the range of 100 to 5000 nM.
Turning to `CC(C)Oc1ccc(S(=O)(=O)N2C[C@H](n3nc(CC(=O)O)c4ccc(F)cc43)C[C@@H]2c2ncc[nH]2)cc1` [Compound I-363], the IC50 against Human DP1 receptor (setting [2]) was in the range of 100 to 5000 nM. Further, the Ki was 100 to 5000 nM at CRTH2 (setting [3]) and 170 nM at CRTH2.
In turn, `Cc1noc([C@H]2C[C@@H](n3nc(CC(=O)O)c4ccc(F)cc43)CN2S(=O)(=O)c2ccc(OC(C)C)cc2)n1` [Compound I-364] returned an IC50 on Human DP1 receptor (setting [2]) of 100 to 5000 nM. For the same compound, the Ki at CRTH2 (setting [3]) is 100 to 5000 nM.
Turning to `CC(C)Oc1ccc(S(=O)(=O)N2C[C@H](n3nc(CC(=O)O)c4ccc(F)cc43)C[C@@H]2COc2ccccc2)cc1` [Compound I-365], the IC50 against Human DP1 receptor (setting [2]) was < 100 nM. For the same compound, the Ki on CRTH2 (setting [3]) lay within 100 to 5000 nM.
The matching figures for `CC(C)Oc1ccc(S(=O)(=O)N2C[C@H](n3nc(CC(=O)O)c4ccc(F)cc43)C[C@@H]2COc2ccc(F)cc2)cc1` [Compound I-366]: < 100 nM and 100 to 5000 nM.

A word on the Ki: it is the equilibrium dissociation constant of an inhibitor or competing ligand from its target.
